Earlier results, collected in patent US20200230099A1, “Stable Pharmaceutical Composition Comprising Zanamivir” (Dae Hwa Pharma. Co., Ltd., priority 2017, published 2020).
Read-outs that look alike come from different tables or passages of the source.

Conditions: in vivo

bioavailability: about 2%
bioavailability (inhaled or intranasal): 4-17%
SMILES: CC(=O)N[C@H]1[C@H]([C@H](O)[C@H](O)CO)OC(C(=O)O)=C[C@@H]1N=C(N)N [zanamivir, 5-(acetylamino)-4-[(aminoiminomethyl)amino]-2,6-anhydro-3,4,5-trideoxy-D-glycero-D-galacto-non-2-enonic acid]
